Reference: patent US10293026B2, “Agent for preventing or treating demyelinating disease” (Osaka University, priority 2014, dated 2019)

B1: FGF15: Recombinant FGF15 (Abcam), comparison FGF subtype (protein, UniProt O35622 26-218, looked up)
Fibroblast growth factor 15: RPLAQQSQSVSDEDPLFLYGWGKITRLQYLYSAGPYVSNCFLRIRSDGSVDCEEDQNERNLLEFRAVALKTIAIKDVSSVRYLCMSADGKIYGLIRYSEEDCTFREEMDCLGYNQYRSMKHHLHIIFIQAKPREQLQDQKPSNFIPVFHRSFFETGDQLRSKMFSLPLESDSMDPFRMVEDVDHLVKSPSFQK
B2: FGF23: Recombinant FGF23 (R&D), comparison FGF subtype (protein, UniProt Q9GZV9 25-251, looked up)
Fibroblast growth factor 23: YPNASPLLGSSWGGLIHLYTATARNSYHLQIHKNGHVDGAPHQTIYSALMIRSEDAGFVVITGVMSRRYLCMDFRGNIFGSHYFDPENCRFQHQTLENGYDVYHSPQYHFLVSLGRAKRAFLPGMNPPPYSQFLSRRNEIPLIHFNTPIPRRHTRSAEDDSERDPLNVLKPRARMTPAPASCSQELPSAEDNSPMASDPLGVVRGGRVNTHAGGTGPEGCRPFAKFI

Columns and labels:
[1] = tested on: oligodendrocyte precursor cells; experiment: BrdU uptake by oligodendrocyte precursor cells with culture supernatant of cardiomyocytes and FGFR inhibitors (Example 1); format: cell-based, C57BL/6j mice; conditions: SU5402 at 10, 30, 100 μM or PD173074 at 0.03, 0.1, 0.3, 1 μM added with supernatant; FIG. 1
Description: Hearts extracted from C57BL/6j mice (postnatal day 1-old) were minced, and then poured into 1 mg/ml of Type 1 collagenase (Worthington) and shaken at 37° C. for 20 minutes. The obtained cell suspension was pipetted and allowed to stand, and then the supernatant was collected. Remaining cardiomyocytes after the collection of the supernatant were again poured into 1 mg/ml of Type 1 collagenase (Worthington) and shaken at 37° C. for 20 minutes, and then the supernatant was collected. This operation was repeated three times. The collected supernatant was suspended in MEM ([…]) containing 5% calf serum, and the cell suspension was poured into a culture dish. After 30 minutes, suspension cells were collected, and were resuspended in MEM containing 5% calf serum and then centrifuged (2000 rpm, 6 minutes). […]
The harvested oligodendrocyte precursor cells were seeded in a poly-L-lysine (Sigma)-coated plastic tissue culture dish, and cultured in a medium for 1 day (37° C., 5% CO2). […] Bromodeoxyuridine (BrdU) was subsequently added and cultured at 37° C. for 24 hours, and then the cells were collected; the BrdU uptake was then detected using the cell proliferation ELISA, BrdU colorimetric kit (Roche). As a control, the BrdU uptake was measured under the same conditions as those described above, except that the culture supernatant of cardiomyocytes was not added. […]

[2] = tested on: oligodendrocyte precursor cells; experiment: BrdU uptake by oligodendrocyte precursor cells with recombinant FGFs (Example 3); format: cell-based, C57BL/6j mice; conditions: FGF at 10, 30 or 100 ng/ml, vs saline control; FIG. 3
Description: Recombinant FGF15 (Abcam), FGF21 (R&D), or FGF23 (R&D) was diluted in saline solution immediately before use to prepare an each FGF-containing solution. Oligodendrocyte precursor cells were harvested from C57BL/6j mice (postnatal day 1-old) brains, as in Example 1.
Initially, the oligodendrocyte precursor cells were seeded in a poly-L-lysinde (Sigma)-coated plastic tissue culture dish, and cultured in the following medium for 1 day (37° C., 5% CO2). The medium used was DMEM containing 4 mM L-gludamine (Sigma), 1 mM sodium pyruvate (Sigma), 0.1% bovine serum albumin (Sigma), 50 μg/ml apo-Transferrin (Sigma), 5 μg/ml insulin (Sigma), 30 nM sodium selenite (Sigma), 10 nM biotin (Sigma), 10 nM hydrocortisone (Sigma), 10 ng/ml Platelet-Derived Growth Factor-AA (Peprotech), and 10 ng/ml basic fibroblast growth factor (Peprotech). Thereafter, each type of FGF-containing solution was added to the culture medium of oligodendrocyte precursor cells such that the concentration of each type of FGF was 10 ng/ml, 30 ng/ml, or 100 ng/ml, and the cells were cultured at 37° C. for 24 hours. BrdU was subsequently added and cultured at 37° C. for 24 hours, and then the cells were collected; the BrdU uptake was then detected using the cell proliferation ELISA, BrdU colorimetric kit (Roche). As a control, an equivalent amount of saline solution was used instead of the FGF21-containing solution, and the BrdU uptake was measured under the same conditions as those described above. This experiment studied three cases for each group.

Molecule | increase in the BrdU uptake by culture supernatant of cardiomyocytes [1] | BrdU uptake by the oligodendrocyte precursor cells [2]
CCN(CC)CCCCNc1ncc2cc(-c3cc(OC)cc(OC)c3)c(NC(=O)NC(C)(C)C)nc2n1 [PD173074] | suppressed | –
Cc1c[nH]c(/C=C2\C(=O)Nc3ccccc32)c1CCC(=O)O [SU5402] | suppressed | –
B1 | – | significant difference in the amounts of BrdU uptake was not observed
B2 | – | significant difference in the amounts of BrdU uptake was not observed
